Common to all, as to assay type: biochemical
For assay [1], the target named is T1, Homo sapiens GSK-3β (Homo sapiens, UniProt P49841).
T1 construct: purchased MRC Protein Phosphorylation & Ubiquitylation Unit, University of Dundee (screening service)
As to the kind of experiment: in vitro GSK-3β binding assay (kinase inhibition, MRC PPU Dundee). The following applies: for inhibition at 50 µM: single concentration 50 µM; for IC50: in vitro binding assay, duplicate; for % remaining activity (GSK-3β): single-dose profiling 50 μM. As for the experimental part: (§1) All predicted inhibitors for testing (except compound 3) were purchased from Vitas-M Laboratory, with purity ≥ 90%. Compound 3 was purchased from Biosynth Carbosynth with purity of 95%. Binding assay experiments against Homo sapiens GSK-3β were performed using a specialist service from the MRC Protein Phosphorylation & Ubiquitylation Unit at the University of Dundee (http://www.kinase-screen.mrc.ac.uk/ (accessed on 1 April 2023)). Initial assays underwent single concentration screening at 50 µM concentrations to determine those compounds showing the best inhibitory potential. Inhibitory activities were calculated based on maximal activities measured in the absence of an inhibitor. […] In the kinase selectivity panel screening for 14 and 19, the compounds were assayed at single concentration (50 μM) against CDK2, CDK5, CDK9, ERK1, ERK2, PKA, PKBβ, PKCα, PKCγ, GSK-3α, and GSK-3β. All binding assay experiments were performed in duplicate.

The target of assay [2] is GSK-3α (Homo sapiens, UniProt P49840). As to the kind of experiment: kinase selectivity screening, GSK-3α. The following applies: for % remaining activity (GSK-3α): single-dose profiling 50 μM. As for the experimental part: as §1
Chain of GSK-3α (P49840 whole entry, species assumed): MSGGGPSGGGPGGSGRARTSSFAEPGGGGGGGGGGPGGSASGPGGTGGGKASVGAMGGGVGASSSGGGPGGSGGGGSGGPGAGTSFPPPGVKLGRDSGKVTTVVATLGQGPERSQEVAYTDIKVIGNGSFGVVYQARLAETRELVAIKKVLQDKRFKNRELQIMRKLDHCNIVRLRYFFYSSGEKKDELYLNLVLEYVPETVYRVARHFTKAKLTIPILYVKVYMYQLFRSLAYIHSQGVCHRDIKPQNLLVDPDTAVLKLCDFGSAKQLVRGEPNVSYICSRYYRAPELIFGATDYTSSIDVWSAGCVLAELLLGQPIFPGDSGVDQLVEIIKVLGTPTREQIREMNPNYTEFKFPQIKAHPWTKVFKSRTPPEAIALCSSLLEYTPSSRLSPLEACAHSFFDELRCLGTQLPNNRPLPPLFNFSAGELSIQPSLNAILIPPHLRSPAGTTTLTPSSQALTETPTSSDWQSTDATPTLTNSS
Assay [3] addresses PKBβ (Homo sapiens, UniProt P31751). The assay can be described thus: kinase selectivity screening, PKBβ. As for the experimental part:
as §1

The target in assay [4] is ERK2 (Homo sapiens, UniProt P28482). As to the kind of experiment: kinase selectivity screening, ERK2. As for the experimental part: as §1
Chain of ERK2 (P28482 whole entry, species assumed): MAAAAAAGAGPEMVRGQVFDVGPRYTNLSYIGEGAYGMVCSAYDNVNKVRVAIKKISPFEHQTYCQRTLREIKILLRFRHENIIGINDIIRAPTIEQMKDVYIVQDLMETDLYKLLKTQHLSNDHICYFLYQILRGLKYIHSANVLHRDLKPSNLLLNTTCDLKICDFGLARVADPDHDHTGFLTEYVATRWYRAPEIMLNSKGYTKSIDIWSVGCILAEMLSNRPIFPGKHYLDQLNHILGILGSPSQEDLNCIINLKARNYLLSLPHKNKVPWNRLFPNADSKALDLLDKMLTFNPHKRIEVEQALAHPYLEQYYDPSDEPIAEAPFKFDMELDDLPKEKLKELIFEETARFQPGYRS
Assay [5] concerns the target PKCγ (Homo sapiens, UniProt P05129). The assay can be described thus: kinase selectivity screening, PKCγ. As for the experimental part: as §1

The structures appear in SMILES notation. Values joined by “and” are separate entries in the source; they are usually repeats but may differ in a detail not shown here. Equal values may be shown once.

T1 sequence (P49841 whole entry): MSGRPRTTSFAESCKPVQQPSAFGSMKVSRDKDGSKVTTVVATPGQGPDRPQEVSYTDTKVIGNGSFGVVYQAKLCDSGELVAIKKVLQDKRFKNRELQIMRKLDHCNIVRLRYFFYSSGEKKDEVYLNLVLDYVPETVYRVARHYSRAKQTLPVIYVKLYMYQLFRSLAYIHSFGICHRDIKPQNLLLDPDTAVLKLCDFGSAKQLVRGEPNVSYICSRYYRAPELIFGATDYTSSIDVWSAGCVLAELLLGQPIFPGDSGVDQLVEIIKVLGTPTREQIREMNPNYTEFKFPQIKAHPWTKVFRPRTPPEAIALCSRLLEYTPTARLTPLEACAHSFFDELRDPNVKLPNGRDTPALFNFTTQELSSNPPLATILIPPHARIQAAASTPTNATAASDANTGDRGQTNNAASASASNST
Chain of PKBβ (P31751 whole entry, species assumed): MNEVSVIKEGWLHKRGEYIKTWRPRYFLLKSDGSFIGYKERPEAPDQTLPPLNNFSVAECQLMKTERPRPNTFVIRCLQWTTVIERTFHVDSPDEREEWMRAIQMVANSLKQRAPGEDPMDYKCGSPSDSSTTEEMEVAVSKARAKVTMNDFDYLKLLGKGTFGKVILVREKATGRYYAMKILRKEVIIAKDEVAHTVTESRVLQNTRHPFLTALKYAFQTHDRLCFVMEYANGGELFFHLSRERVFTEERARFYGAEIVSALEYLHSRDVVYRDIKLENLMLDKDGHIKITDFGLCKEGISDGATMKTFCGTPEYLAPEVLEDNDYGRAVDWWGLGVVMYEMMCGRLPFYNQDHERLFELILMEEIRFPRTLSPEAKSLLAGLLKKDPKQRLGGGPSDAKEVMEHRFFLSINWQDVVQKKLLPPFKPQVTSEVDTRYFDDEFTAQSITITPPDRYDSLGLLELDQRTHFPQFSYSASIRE

As usually defined, the inhibition is the drop in the measured response relative to a control, in per cent. Compound `Cc1ccc2c(c1)[C@]1(N[C@@H]([C@@H](C)O)[C@H]3C(=O)N(Cc4ccc5c(c4)OCO5)C(=O)[C@H]31)C(=O)N2` [Compound 10, (3S,3′R,3a′S,6a′R)-5′-(benzo[d][1,3]dioxol-5-ylmethyl)-3′-((R)-1-hydroxyethyl)-5-methyl-2′,3′,3a′,6a′-tetrahydro-4′H-spiro[indoline-3,1′-pyrrolo[3,4-c]pyrrole]-2,4′,6′(5′H)-trione] came in with an inhibition at 50 µM in assay [1] of 6%. Same read-out and setting: with `COc1cc2c(cc1OC)[C@@H](c1c(O)[nH]c(=O)n(-c3ccc(C)c(C)c3)c1=O)NCC2` [Compound 11, (S)-5-(6,7-dimethoxy-1,2,3,4-tetrahydroisoquinolin-1-yl)-3-(3,4-dimethylphenyl)-6-hydroxypyrimidine-2,4(1H,3H)-dione] the figure was 2%; with `O=C1Nc2cc(Cl)ccc2/C1=C/c1cccc2[nH]ccc12` [Compound 12, (Z)-3-((1H-indol-4-yl)methylene)-6-chloroindolin-2-one], under 0%. One may read the IC50 as the concentration at which inhibition is half-maximal. High values mean weaker potency in that assay, low ones greater potency in that assay. For `Cc1ccc(Nc2c3c4c(cccc4[nH]c2=O)C(=O)c2ccccc2-3)cc1` [Compound 13], the IC50 in assay [1] is < 10 µM and 9.4 µM.

For `Cc1cc(C)cc(Nc2c3c4c(cccc4[nH]c2=O)C(=O)c2ccccc2-3)c1` [Compound 14], the IC50 in assay [1] was < 10 µM and 9.1 µM; in assay [2], 2.3 ± 0.4 µM; in assay [3] it was 14.9 ± 1.5 µM; in assay [4], 21.3 µM. Besides, in assay [1], the “% remaining activity (GSK-3β)” value is given as under 50%. Besides, in assay [2], the “% remaining activity (GSK-3α)” value is on record as under 50%. With `COc1ccc(Nc2c3c4c(cccc4[nH]c2=O)C(=O)c2ccccc2-3)cc1` [Compound 15], the IC50 in assay [1] is 11.4 ± 0.6 µM. For the compound `COc1ccccc1Nc1c2c3c(cccc3n(C)c1=O)C(=O)c1ccccc1-2` [Compound 16], the IC50 in assay [1] was found to be 27.1 ± 1.1 µM. Same read-out and setting: to `COc1ccc(Nc2c3c4c(c(Br)ccc4n(C)c2=O)C(=O)c2ccccc2-3)cc1` [Compound 17] belongs 14 ± 3.1 µM; to `O=C1c2ccccc2-c2c(NC3CCCCC3)c(=O)[nH]c3cccc1c23` [Compound 18], 25.3 ± 3.5 µM.

For `CCCCNc1c2c3c(cccc3[nH]c1=O)C(=O)c1ccccc1-2` [Compound 19], the IC50 was < 10 µM and 4.9 µM in assay [1]; 1.7 ± 0.1 µM in assay [2]; 24.6 ± 0.2 µM in assay [3]; 11 ± 1.5 µM in assay [5]. Also, the “% remaining activity (GSK-3β)” value in assay [1] is reported as under 50%. The “% remaining activity (GSK-3α)” value in assay [2] is reported as under 50%. Consider `COCCCNc1c(O)nc2cccc3c2c1-c1ccccc1C3=O` [Compound 20], for which, in assay [1], the IC50 is < 10 µM and 9.1 µM.

The compound `Cn1c(=O)c(NCCO)c2c3c(cccc31)C(=O)c1ccccc1-2` [Compound 21] yielded an IC50 in assay [1] of 17 ± 2.7 µM. Still for that read-out and setting: to `Nc1c2c3c(cccc3[nH]c1=O)C(=O)c1ccccc1-2` [Compound 22] belongs 36.7 ± 5.7 µM.

The record behind these values is PMC10223992, “In Silico-Motivated Discovery of Novel Potent Glycogen Synthase-3 Inhibitors: 1-(Alkyl/arylamino)-3H-naphtho[1,2,3-de]quinoline-2,7-dione Identified as a Scaffold for Kinase Inhibitor Development” (Pharmaceuticals, 2023).
